Laboratory results published in paper PMC9851200, “Multiparameter phenotypic screening for endogenous TFEB and TFE3 translocation identifies novel chemical series modulating lysosome function” (Autophagy, 2022).

Tests used:
Assay type in all cases: binding
[1] = target: kinases (KINOMEscan panel) (Homo sapiens, UniProt P29597); conditions: NEW KINOMEscan; for KINOMEscan TYK2(JH1domain-catalytic): kinase TYK2(JH1domain-catalytic)
[2] = target: kinases (KINOMEscan panel) (Homo sapiens, UniProt Q9NQU5); conditions: PAK6; NEW KINOMEscan
Sequence of kinases (KINOMEscan panel) (Homo sapiens, UniProt Q9NQU5) (Q9NQU5 whole entry): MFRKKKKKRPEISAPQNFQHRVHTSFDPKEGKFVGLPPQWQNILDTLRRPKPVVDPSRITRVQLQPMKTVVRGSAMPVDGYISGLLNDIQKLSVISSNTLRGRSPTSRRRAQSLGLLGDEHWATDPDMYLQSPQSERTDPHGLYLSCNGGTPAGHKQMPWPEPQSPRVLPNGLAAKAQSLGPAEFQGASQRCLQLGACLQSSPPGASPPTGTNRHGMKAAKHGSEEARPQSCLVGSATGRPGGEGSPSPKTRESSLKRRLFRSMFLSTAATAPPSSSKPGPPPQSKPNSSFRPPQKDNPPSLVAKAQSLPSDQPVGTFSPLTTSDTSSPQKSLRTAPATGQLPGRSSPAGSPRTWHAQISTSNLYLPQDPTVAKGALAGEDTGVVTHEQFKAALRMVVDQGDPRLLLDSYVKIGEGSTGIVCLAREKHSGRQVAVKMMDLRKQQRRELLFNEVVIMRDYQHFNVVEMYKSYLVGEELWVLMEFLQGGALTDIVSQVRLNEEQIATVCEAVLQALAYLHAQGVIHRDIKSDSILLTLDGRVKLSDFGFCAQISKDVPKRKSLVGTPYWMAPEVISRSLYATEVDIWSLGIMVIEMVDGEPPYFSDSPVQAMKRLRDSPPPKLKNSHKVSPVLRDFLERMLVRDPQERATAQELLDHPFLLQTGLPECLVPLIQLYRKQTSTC

[3] = target: T1, kinases (KINOMEscan panel) (Homo sapiens, UniProt O75747); conditions: NEW KINOMEscan
T1 sequence (O75747 1-1486): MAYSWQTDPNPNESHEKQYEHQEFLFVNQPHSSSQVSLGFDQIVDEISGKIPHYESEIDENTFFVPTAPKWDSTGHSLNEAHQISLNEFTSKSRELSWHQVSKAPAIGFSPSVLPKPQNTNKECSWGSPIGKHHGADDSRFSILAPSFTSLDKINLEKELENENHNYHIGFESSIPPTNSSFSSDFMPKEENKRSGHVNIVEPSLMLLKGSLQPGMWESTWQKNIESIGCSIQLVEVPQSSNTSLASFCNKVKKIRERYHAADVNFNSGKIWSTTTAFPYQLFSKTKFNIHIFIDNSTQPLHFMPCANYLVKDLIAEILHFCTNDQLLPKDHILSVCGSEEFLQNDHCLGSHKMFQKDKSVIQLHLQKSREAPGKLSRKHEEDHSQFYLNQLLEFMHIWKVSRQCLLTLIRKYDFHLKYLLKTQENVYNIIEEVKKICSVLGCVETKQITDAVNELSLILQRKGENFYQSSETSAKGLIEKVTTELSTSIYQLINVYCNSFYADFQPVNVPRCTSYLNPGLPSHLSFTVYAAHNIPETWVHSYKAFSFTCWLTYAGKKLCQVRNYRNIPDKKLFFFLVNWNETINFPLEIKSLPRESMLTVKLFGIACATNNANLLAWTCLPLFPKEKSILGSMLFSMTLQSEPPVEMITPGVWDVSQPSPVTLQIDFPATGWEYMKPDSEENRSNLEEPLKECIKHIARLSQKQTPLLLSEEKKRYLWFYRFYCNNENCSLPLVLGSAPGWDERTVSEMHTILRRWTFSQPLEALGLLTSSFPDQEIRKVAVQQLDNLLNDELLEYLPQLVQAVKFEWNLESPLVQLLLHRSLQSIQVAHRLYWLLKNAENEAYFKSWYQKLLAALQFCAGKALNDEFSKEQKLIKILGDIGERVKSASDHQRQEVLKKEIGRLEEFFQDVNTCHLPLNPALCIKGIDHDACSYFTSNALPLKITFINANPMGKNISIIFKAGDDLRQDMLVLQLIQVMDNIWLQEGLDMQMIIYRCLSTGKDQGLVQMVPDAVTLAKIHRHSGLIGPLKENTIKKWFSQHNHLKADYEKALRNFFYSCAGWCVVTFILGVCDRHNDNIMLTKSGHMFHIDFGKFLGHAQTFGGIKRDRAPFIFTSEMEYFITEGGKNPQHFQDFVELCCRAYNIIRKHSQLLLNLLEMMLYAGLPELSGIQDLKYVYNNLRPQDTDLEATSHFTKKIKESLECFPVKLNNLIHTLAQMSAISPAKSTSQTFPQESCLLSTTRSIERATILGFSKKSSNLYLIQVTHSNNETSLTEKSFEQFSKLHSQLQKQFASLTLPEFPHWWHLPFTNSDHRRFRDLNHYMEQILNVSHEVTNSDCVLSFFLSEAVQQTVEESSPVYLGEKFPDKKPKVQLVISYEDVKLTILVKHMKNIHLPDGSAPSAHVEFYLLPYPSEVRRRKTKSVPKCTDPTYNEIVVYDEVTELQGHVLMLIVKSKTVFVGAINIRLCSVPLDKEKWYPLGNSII

[4] = target: T2, kinases (KINOMEscan panel) (Homo sapiens, UniProt Q16566); conditions: CAMK4; NEW KINOMEscan
T2 sequence (Q16566 1-473): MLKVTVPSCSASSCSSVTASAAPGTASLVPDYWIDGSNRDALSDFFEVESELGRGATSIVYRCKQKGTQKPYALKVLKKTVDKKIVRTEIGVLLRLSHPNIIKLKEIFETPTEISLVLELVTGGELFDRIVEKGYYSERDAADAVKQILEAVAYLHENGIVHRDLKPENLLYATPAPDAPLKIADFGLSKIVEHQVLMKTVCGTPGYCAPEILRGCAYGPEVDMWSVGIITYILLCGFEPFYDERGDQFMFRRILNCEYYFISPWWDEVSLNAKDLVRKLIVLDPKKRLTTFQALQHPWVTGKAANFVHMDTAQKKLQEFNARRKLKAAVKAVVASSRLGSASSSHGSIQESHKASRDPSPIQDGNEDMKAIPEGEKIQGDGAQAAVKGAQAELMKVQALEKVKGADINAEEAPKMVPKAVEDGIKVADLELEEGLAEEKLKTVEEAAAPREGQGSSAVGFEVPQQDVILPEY

[5] = target: kinases (KINOMEscan panel) (Homo sapiens, UniProt Q8TDR2); conditions: STK35; NEW KINOMEscan
Sequence of kinases (KINOMEscan panel) (Homo sapiens, UniProt Q8TDR2) (Q8TDR2 whole entry): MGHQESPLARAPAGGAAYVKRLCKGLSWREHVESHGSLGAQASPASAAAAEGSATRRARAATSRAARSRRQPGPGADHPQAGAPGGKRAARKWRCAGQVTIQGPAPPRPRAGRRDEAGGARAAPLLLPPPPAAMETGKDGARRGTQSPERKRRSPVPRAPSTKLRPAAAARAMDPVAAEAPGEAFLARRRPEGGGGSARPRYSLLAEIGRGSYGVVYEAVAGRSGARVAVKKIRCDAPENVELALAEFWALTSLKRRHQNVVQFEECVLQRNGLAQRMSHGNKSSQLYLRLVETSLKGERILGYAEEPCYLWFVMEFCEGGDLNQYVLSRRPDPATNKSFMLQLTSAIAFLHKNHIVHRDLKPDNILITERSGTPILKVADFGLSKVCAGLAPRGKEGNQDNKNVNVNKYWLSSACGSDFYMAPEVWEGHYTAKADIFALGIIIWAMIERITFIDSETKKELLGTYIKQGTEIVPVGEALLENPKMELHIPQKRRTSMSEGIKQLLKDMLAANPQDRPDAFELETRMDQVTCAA

[6] = target: T3, kinases (KINOMEscan panel) (Homo sapiens, UniProt Q13470); conditions: TNK1; NEW KINOMEscan
T3 sequence (Q13470 1-666): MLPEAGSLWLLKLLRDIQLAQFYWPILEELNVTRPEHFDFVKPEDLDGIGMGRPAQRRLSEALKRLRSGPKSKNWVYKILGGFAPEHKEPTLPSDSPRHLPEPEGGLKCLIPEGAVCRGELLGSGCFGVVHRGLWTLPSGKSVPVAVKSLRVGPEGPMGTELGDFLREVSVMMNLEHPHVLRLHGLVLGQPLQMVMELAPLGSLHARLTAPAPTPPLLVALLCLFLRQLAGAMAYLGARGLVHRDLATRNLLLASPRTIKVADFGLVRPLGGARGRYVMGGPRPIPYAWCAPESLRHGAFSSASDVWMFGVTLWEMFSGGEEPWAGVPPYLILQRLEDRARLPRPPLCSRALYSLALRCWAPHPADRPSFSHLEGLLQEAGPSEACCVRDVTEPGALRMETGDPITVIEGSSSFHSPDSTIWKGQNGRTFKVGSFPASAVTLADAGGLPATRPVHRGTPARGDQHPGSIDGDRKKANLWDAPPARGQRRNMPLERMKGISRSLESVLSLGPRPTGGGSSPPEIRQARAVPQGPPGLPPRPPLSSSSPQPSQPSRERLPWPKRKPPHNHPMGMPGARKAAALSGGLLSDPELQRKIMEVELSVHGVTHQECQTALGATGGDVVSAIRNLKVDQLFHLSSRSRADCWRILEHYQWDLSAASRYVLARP

[7] = target: kinases (KINOMEscan panel) (Homo sapiens, UniProt P00533, L861Q); conditions: kinase EGFR(L861Q); NEW KINOMEscan
Sequence of kinases (KINOMEscan panel) (Homo sapiens, UniProt P00533, L861Q) (P00533 25-1210 L861Q): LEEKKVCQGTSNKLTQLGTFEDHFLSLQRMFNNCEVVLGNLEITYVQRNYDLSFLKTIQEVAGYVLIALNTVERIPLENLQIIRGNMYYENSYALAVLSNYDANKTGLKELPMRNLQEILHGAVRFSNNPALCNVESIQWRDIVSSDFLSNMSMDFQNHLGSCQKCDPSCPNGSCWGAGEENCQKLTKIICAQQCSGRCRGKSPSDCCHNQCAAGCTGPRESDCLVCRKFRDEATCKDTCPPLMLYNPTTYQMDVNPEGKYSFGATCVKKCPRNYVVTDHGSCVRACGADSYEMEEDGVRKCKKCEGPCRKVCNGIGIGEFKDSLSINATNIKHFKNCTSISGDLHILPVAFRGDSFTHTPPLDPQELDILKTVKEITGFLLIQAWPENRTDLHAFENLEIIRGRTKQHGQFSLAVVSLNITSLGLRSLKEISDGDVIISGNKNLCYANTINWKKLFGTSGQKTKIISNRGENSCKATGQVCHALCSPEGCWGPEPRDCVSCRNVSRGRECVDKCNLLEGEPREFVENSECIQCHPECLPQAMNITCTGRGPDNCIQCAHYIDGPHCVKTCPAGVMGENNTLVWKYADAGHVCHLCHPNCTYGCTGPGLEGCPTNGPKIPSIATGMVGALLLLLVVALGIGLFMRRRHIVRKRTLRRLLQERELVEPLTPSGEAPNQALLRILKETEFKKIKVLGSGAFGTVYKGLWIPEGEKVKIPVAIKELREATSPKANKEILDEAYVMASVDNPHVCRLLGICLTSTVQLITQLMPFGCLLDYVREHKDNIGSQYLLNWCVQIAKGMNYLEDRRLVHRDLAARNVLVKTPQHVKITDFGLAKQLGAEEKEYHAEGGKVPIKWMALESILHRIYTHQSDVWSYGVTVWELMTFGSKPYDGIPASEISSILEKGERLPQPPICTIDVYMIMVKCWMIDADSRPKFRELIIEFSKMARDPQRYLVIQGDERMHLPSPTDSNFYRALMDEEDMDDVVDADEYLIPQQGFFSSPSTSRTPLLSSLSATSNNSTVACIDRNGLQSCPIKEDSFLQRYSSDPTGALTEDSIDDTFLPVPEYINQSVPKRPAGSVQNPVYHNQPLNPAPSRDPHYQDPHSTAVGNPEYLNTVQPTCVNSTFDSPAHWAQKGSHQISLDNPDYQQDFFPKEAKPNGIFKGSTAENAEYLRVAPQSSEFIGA

Sequence of kinases (KINOMEscan panel) (Homo sapiens, UniProt P29597) (P29597 whole entry): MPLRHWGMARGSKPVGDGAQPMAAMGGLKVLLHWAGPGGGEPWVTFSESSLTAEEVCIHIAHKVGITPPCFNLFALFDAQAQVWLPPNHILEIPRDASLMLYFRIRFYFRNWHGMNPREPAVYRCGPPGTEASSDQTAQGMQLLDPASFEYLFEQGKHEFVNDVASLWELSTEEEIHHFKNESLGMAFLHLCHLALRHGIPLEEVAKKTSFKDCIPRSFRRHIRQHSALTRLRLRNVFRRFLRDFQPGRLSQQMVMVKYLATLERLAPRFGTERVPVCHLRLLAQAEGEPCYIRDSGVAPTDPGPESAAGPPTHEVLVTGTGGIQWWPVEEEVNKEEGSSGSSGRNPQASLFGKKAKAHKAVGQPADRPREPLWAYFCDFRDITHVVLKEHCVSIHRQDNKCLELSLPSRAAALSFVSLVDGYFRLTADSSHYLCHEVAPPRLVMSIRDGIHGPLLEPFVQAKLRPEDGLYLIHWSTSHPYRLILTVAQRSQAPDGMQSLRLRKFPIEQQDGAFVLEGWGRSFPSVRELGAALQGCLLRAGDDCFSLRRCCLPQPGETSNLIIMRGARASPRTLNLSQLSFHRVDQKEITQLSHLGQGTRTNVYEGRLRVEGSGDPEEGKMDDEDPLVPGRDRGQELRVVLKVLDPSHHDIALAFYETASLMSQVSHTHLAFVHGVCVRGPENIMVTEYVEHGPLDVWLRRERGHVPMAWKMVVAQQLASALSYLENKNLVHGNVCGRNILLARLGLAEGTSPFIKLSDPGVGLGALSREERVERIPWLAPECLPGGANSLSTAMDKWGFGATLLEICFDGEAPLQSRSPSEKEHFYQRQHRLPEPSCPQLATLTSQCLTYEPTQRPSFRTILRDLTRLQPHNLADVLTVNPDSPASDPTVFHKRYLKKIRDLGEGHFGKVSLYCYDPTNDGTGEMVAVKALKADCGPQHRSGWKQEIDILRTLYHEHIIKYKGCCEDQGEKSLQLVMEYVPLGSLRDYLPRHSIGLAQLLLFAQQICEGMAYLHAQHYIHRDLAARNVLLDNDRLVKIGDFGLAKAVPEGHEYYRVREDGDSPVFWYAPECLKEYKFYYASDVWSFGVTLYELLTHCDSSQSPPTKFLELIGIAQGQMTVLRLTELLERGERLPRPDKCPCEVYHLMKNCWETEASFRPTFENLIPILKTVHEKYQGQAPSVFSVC

Cc1cccc(-c2nc(Nc3ccc4nn(C)cc4c3)c3ccccc3n2)n1 [NK167]
0: KINOMEscan TYK2(JH2domain-pseudokinase) [1] | KINOMEscan TYK2(JH1domain-catalytic) [1] | KINOMEscan PAK6 [2] | KINOMEscan PIK3C2G [3] | KINOMEscan STK35 [5] | KINOMEscan TNK1 [6] | KINOMEscan EGFR(L861Q) [7]
2: KINOMEscan CAMK4 [4]

Cc1cccc(-c2nc(N(C)c3ccc4ncsc4c3)c3ccccc3n2)n1 [NK-161]
0: KINOMEscan TYK2(JH1domain-catalytic) [1] | KINOMEscan PAK6 [2] | KINOMEscan PIK3C2G [3] | KINOMEscan STK35 [5] | KINOMEscan EGFR(L861Q) [7]
12: KINOMEscan TYK2(JH2domain-pseudokinase) [1]
7: KINOMEscan CAMK4 [4] | KINOMEscan TNK1 [6]
